Source: patent US9370189B2, “Controlling Pseudomonas aeruginosa persister cells with GM-CSF” (priority 2012, dated 2016)

Assays:
[1] = tested on: E. coli K12; assay: Effect of GM-CSF on planktonic E. coli K12 cells (total viable cells and persisters) at exponential phase, alone and with antibiotic; format: cell-based, Escherichia coli; conditions: for % change in avg. CFU/mL by GM-CSF (compared to GM-CSF free control) 20 μg/mL Tet / % change in avg. CFU/mL by GM-CSF (compared to GM-CSF free control) With 2 μg/mL Cip / % change in avg. CFU/mL by GM-CSF (compared to GM-CSF free control) With 70 μg/mL Tob / % change in avg. CFU/mL by GM-CSF (compared to GM-CSF free control) With 200 μg/mL Gen: E. coli K12 exponential phase, 0.17 pM GM-CSF; for % change in avg. CFU/ml after adding factor + CIP / % change in avg. CFU/ml after adding factor + TET / % change in avg. CFU/ml after adding factor + TOB / % change in avg. CFU/ml after adding factor + GEN: planktonic E. coli K12; for % change in avg. CFU/ml after adding factor + CIP: 2.43 pg/mL GM-CSF with 2 μg/mL ciprofloxacin; for % change in avg. CFU/ml after adding factor + TET: 2.43 pg/mL GM-CSF with 20 μg/mL tetracycline; for % change in avg. CFU/ml after adding factor + TOB: 2.43 pg/mL GM-CSF with 70 μg/mL tobramycin; for % change in avg. CFU/ml after adding factor + GEN: 2.43 pg/mL GM-CSF with 200 μg/mL gentamicin
Procedure: This Example describes the treatment of planktonic P. aeruginosa PAO1, PDO300 and Escherichia coli K12, with GM-CSF introduced directly or together with an antibiotic to test the synergy. All experiments were conducted with cells harvested from exponential phase subcultures with an optical density at 600 nm (OD600) of 0.3 to 0.4.
In brief, after preparing an overnight culture of the tested strain in 25 ml LB medium, a subculture was prepared with an OD600 of 0.01 in 50 mL LB medium. The subculture was incubated at 37° C. with shaking at 200 rpm for 3-4 h, till an OD600 of 0.3 to 0.4 was reached. The exponential phase subculture was then divided equally into two centrifuge tubes, each containing 25 mL of the subculture. The subcultures were washed twice with 0.85% NaCl buffer by vortexing and then centrifuging at 4° C., 8000 rpm for 10 min each time. The washed subcultures/cells were resuspended in 25 mL 0.85% NaCl buffer and vortexed gently for 1 min. One of the tubes of subculture was selected for isolation of persisters by adding 200 μg/mL ciprofloxacin (for PAO1 and PDO300 strains) or 100 μg/mL ampicillin (for E. coli K12 strain). After adding the antibiotic for persister isolation, the subculture was incubated at 37° C., shaking at 200 rpm for 3.5 h.
To test the effects of GM-CSF on viability of persisters, the second tube was used to quantify the total number of viable cells and 1 mL of the washed persister cells was divided into 6 microcentrifuge tubes; 3 were control and the other 3 were GM-CSF treatment samples. In the treatment samples, GM-CSF was added to a concentration of 2.43 pg/mL (or 0.17 pM), the same as found in healthy human bodies. The control samples were supplemented with the same concentration of PBS and BSA as present in 2.43 pg/mL (or 0.17 pM) GM-CSF samples.
After incubating at 37° C. for 1 h with shaking at 200 rpm, the samples were plated on LB agar plates (15 g/L bacto agar) using drop plate method. The agar plates were then incubated for 24 h at 37° C. to count the total number of persister cells and understand the effect of 0.17 pM GM-CSF on the viability of persister cells.
To test the synergy with antibiotics, the above samples were then incubated at 37° C. for 3.5 h with shaking at 200 rpm after adding the selected antibiotic. After 3.5 h, the CFU of samples was quantified in the same way to understand if there is any synergy between GM-CSF and antibiotic. Similar treatments were performed on the total population in exponential phase as well. Apart from exponential phase, the synergistic effects of GM-CSF with antibiotics on total viable cells and persisters were also evaluated at stationary phase but PBS buffer (pH=7.4) was used in the experiments instead of 0.85% NaCl solution. Moreover, the 1 h and 3.5 h treatments were performed as co-treatments.

[2] = tested on: membrane fractions of P. aeruginosa; assay: GM-CSF binding to non-denatured cellular fractions (non-denatured PAGE, Western blotting); set-up: species or system Pseudomonas aeruginosa; conditions: P. aeruginosa fractions incubated with GM-CSF, Western blotting (FIG. 22)
Procedure: Cell fractionation was done as described by George et al. (1986) with some modification. Briefly, cell pellets from stationary phase PAO1 were suspended in 1 ml of PBS buffer (pH7.2) containing 0.2 mg/mL lysozyme, protease inhibitor cocktail (Roche), chilled on ice, and sonicated (20 bursts, 10 s each at 70 W) with a Sonicator Q500 (Qsonica). The unbroken cells and debris were removed by centrifugation at 15,600×g for 5 min at 4° C. The supernatant was transferred to a 1.5 mL centrifuge tube, and the cell membranes were precipitated from the supernatant by centrifugation in a microcentrifuge at 15,600×g for 1 hour at 4° C. The supernatant was saved as cytoplasm fraction. To further separate inner and outer membrane proteins, the membrane pellets were thoroughly suspended in 0.1 ml of PBS buffer supplemented with 1% Sarkosyl by repeated pipetting. Following incubation for 30 minutes with intermittent mixing at room temperature, the suspension was centrifuged at 15,600×g for 1 hour at 4° C. […]
Different cellular components (30 μL) from P. aeruginosa were mixed with GM-CSF (20 ng) and incubated at room temperature for 2 hours. […] The separated samples were then subjected to Western blotting and detected by Human GM-CSF Monoclonal Antibody as described in whole cell binding assay.

[3] = total viable cells, listed as factor

GM-CSF: granulocyte macrophage-colony stimulating factor, a cytokine secreted by macrophages; recombinant human GM-CSF (R&D systems) in binding tests
effect on E. coli persister cells ([1]; compared to the pathogenic strain P. aeruginosa): ineffective | % change in avg. CFU/mL by GM-CSF (compared to GM-CSF free control) 20 μg/mL Tet ([1]; persisters): −6.7% | % change in avg. CFU/mL by GM-CSF (compared to GM-CSF free control) With 2 μg/mL Cip ([1]; persisters): −4.8% | % change in avg. CFU/mL by GM-CSF (compared to GM-CSF free control) With 70 μg/mL Tob ([1]; persisters): +1.5% | % change in avg. CFU/mL by GM-CSF (compared to GM-CSF free control) With 200 μg/mL Gen ([1]; persisters): +11.1% | % change in avg. CFU/ml after adding factor + CIP ([1]; persisters): −6.18% | % change in avg. CFU/ml after adding factor + CIP ([1]; persisters, listed as factor): −6.18% | % change in avg. CFU/ml after adding factor + TET ([1]; persisters): +12.00% | % change in avg. CFU/ml after adding factor + TET ([1]; persisters, listed as factor): +12.00% | % change in avg. CFU/ml after adding factor + TOB ([1]; persisters): +11.16% | % change in avg. CFU/ml after adding factor + TOB ([1]; persisters, listed as factor): +11.16% | % change in avg. CFU/ml after adding factor + GEN ([1]; persisters): +18.52% | % change in avg. CFU/ml after adding factor + GEN ([1]; persisters, listed as factor): +18.52% | % change in avg. CFU/mL by GM-CSF (compared to GM-CSF free control) 20 μg/mL Tet ([1]; total viable cells): −19.0% | % change in avg. CFU/mL by GM-CSF (compared to GM-CSF free control) With 2 μg/mL Cip ([1]; total viable cells): +5.9% | % change in avg. CFU/mL by GM-CSF (compared to GM-CSF free control) With 70 μg/mL Tob ([1]; total viable cells): −32.0% | % change in avg. CFU/mL by GM-CSF (compared to GM-CSF free control) With 200 μg/mL Gen ([1]; total viable cells): −31.3% | % change in avg. CFU/ml after adding factor + CIP ([1]; total viable cells): +5.88% | % change in avg. CFU/ml after adding factor + CIP [1, 3]: +5.88% | % change in avg. CFU/ml after adding factor + TET ([1]; total viable cells): −19.05% | % change in avg. CFU/ml after adding factor + TET [1, 3]: −19.05% | % change in avg. CFU/ml after adding factor + TOB ([1]; total viable cells): −32.00% | % change in avg. CFU/ml after adding factor + TOB [1, 3]: −32.00% | % change in avg. CFU/ml after adding factor + GEN ([1]; total viable cells): −31.34% | % change in avg. CFU/ml after adding factor + GEN [1, 3]: −31.34% | binding to cellular components [2]: preferentially binds to membrane fractions
